Reference: PubChem BioAssay AID248 (DTP/NCI, 2004)
Several values for one entry are separate records, joined by “and”; a condition that tells them apart may be missing. Identical values can stand only once. Toxic doses and inconclusive results are not listed. No stated cut-off is given here; in the data, active means T/C of 150% or more; inactive means T/C below 125%.

Tested on: L1210 leukemia ip in BDF1 mice, survival T/C
Assay: NCI In Vivo Anticancer Drug Screen. Data for tumor model L1210 Leukemia (intraperitoneal) in B6D2F1 (BDF1) mice
Details: endpoint: mean survival time, higher = longer survival
Method in brief: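 Tumor cells were implanted, animals were treated, and survival was followed. The result divides the treated measurement by the vehicle-control measurement.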

[1] = dose: 100.0 mg/kg/injection, schedule: Q01DX009 (ip), vehicle: saline with Tween-80
[2] = dose: 200.0 mg/kg/injection, schedule: Q01DX009 (ip), vehicle: saline with Tween-80
[3] = dose: 400.0 mg/kg/injection, schedule: Q01DX009 (ip), vehicle: saline with Tween-80
[4] = dose: 100.0 mg/kg/injection, schedule: Q04DX003 (ip), vehicle: saline with Tween-80
[5] = dose: 200.0 mg/kg/injection, schedule: Q04DX003 (ip), vehicle: saline with Tween-80
[6] = dose: 400.0 mg/kg/injection, schedule: Q04DX003 (ip), vehicle: saline with Tween-80
[7] = dose: 100.0 mg/kg/injection, schedule: Q01DX009 (ip), vehicle: Klucel (hydroxypropylcellulose) (HPC)
[8] = dose: 100.0 mg/kg/injection, schedule: Q04DX003 (ip), vehicle: Klucel (hydroxypropylcellulose) (HPC)
[9] = dose: 200.0 mg/kg/injection, schedule: Q01DX009 (ip), vehicle: Klucel (hydroxypropylcellulose) (HPC)
[10] = dose: 200.0 mg/kg/injection, schedule: Q04DX003 (ip), vehicle: Klucel (hydroxypropylcellulose) (HPC)
[11] = dose: 400.0 mg/kg/injection, schedule: Q01DX009 (ip), vehicle: Klucel (hydroxypropylcellulose) (HPC)
[12] = dose: 400.0 mg/kg/injection, schedule: Q04DX003 (ip), vehicle: Klucel (hydroxypropylcellulose) (HPC)
[13] = dose: 100.0 mg/kg/injection, schedule: Q04DX003 (ip), vehicle: saline
[14] = dose: 200.0 mg/kg/injection, schedule: Q04DX003 (ip), vehicle: saline
[15] = dose: 400.0 mg/kg/injection, schedule: Q04DX003 (ip), vehicle: saline
[16] = dose: 100.0 mg/kg/injection, schedule: Q04DX002 (ip), vehicle: Klucel (hydroxypropylcellulose) (HPC)
[17] = dose: 200.0 mg/kg/injection, schedule: Q04DX002 (ip), vehicle: Klucel (hydroxypropylcellulose) (HPC)
[18] = dose: 400.0 mg/kg/injection, schedule: Q04DX002 (ip), vehicle: Klucel (hydroxypropylcellulose) (HPC)
[19] = dose: 100.0 mg/kg/injection, schedule: Q01DX009 (ip), vehicle: saline

Measured: T/C

Cc1cc(=O)[nH]c(Nc2ccccc2)n1
inactive: [1] 90 % of control | [2] 93 % of control | [3] 90 % of control

CS(=O)(=O)NC(=O)NCCCl
inactive: dose: 100.0 mg/kg/injection, schedule: Q01DX001 (ip), vehicle: other 95 % of control | dose: 200.0 mg/kg/injection, schedule: Q01DX001 (ip), vehicle: other 95 % of control | dose: 400.0 mg/kg/injection, schedule: Q01DX001 (ip), vehicle: other 98 % of control

Cc1cc(N(CCCOS(C)(=O)=O)CCCOS(C)(=O)=O)ccc1C=Nc1cc(Br)c(O)c(Br)c1
inactive: [1] 94 % of control | [4] 92 % of control | [2] 94 % of control | [5] 90 % of control | [3] 89 % of control | [6] 94 % of control

O=[N+]([O-])c1ccc(Oc2cccc(C(F)(F)F)c2)nc1
inactive: [7] 101 % of control | [8] 101 % of control | [9] 103 % of control | [10] 95 % of control | [11] 107 % of control | [12] 101 % of control

CN(C)C=Nc1ccc2c3c(cccc13)CC2
inactive: dose: 6.25 mg/kg/injection, schedule: Q04DX003 (ip), vehicle: saline with Tween-80 103 % of control | dose: 12.5 mg/kg/injection, schedule: Q04DX003 (ip), vehicle: saline with Tween-80 88 % of control | dose: 25.0 mg/kg/injection, schedule: Q04DX003 (ip), vehicle: saline with Tween-80 98 % of control

COc1cccc(CCN)c1
inactive: dose: 50.0 mg/kg/injection, schedule: Q01DX001 (ip), vehicle: saline 116 % of control | dose: 100.0 mg/kg/injection, schedule: Q01DX001 (ip), vehicle: saline 110 % of control | dose: 200.0 mg/kg/injection, schedule: Q01DX001 (ip), vehicle: saline 118 % of control

CCOc1ccc(C(=O)O)cc1OCC
inactive: [4] 110 % of control | [5] 98 % of control | [6] 96 % of control

CCCCCCCCCC[n+]1ccc(C(N)=O)cc1
inactive: dose: 5.0 mg/kg/injection, schedule: Q01DX009 (ip), vehicle: saline with Tween-80 97 % of control | dose: 5.0 mg/kg/injection, schedule: Q04DX003 (ip), vehicle: saline 97 % of control | dose: 10.0 mg/kg/injection, schedule: Q01DX009 (ip), vehicle: saline with Tween-80 96 % of control | dose: 10.0 mg/kg/injection, schedule: Q04DX003 (ip), vehicle: saline 94 % of control | dose: 20.0 mg/kg/injection, schedule: Q01DX009 (ip), vehicle: saline with Tween-80 96 % of control | dose: 20.0 mg/kg/injection, schedule: Q04DX003 (ip), vehicle: saline 103 % of control

O=C(NN1CCOCC1)c1ccc([N+](=O)[O-])s1
inactive: dose: 50.0 mg/kg/injection, schedule: Q01DX005 (ip), vehicle: saline 98 % of control | dose: 100.0 mg/kg/injection, schedule: Q01DX005 (ip), vehicle: saline 102 % of control | dose: 200.0 mg/kg/injection, schedule: Q01DX005 (ip), vehicle: saline 98 % of control

Cc1ccc(NC(=O)OCCOc2ccc([N+](=O)[O-])cc2)c([N+](=O)[O-])c1
inactive: dose: 50.0 mg/kg/injection, schedule: Q01DX009 (ip), vehicle: Klucel (hydroxypropylcellulose) (HPC) 102 % of control | [7] 91 % of control | [8] 97 % of control | [9] 91 % of control | [10] 102 % of control | [12] 95 % of control

CCCC(C(=O)O)C1=CCCC1 (stereo not given)
inactive: [1] 88 % of control | [13] 98 % of control | [14] 103 % of control | [15] 101 % of control

N#Cc1cccc(OCCOc2cccc3ccccc23)c1
inactive: dose: 100.0 mg/kg/injection, schedule: Q01DX001 (ip), vehicle: saline with Tween-80 96 % of control | dose: 200.0 mg/kg/injection, schedule: Q01DX001 (ip), vehicle: saline with Tween-80 94 % of control | dose: 400.0 mg/kg/injection, schedule: Q01DX001 (ip), vehicle: saline with Tween-80 87 % of control

NC(=O)OCc1c(O)c2c(c(O)c1COC(N)=O)C(=O)C=CC2=O
inactive: dose: 6.25 mg/kg/injection, schedule: Q01DX009 (ip), vehicle: water 94 % of control | dose: 12.5 mg/kg/injection, schedule: Q01DX009 (ip), vehicle: water 92 % of control | dose: 25.0 mg/kg/injection, schedule: Q01DX009 (ip), vehicle: water 99 % of control | dose: 50.0 mg/kg/injection, schedule: Q01DX009 (ip), vehicle: water 90 % of control | dose: 100.0 mg/kg/injection, schedule: Q01DX009 (ip), vehicle: water 95 % of control

C=CCON(CC=C)CC=C
inactive: [16] 102 % of control | [17] 102 % of control | [18] 94 % of control

CC(C)C1=CC2=CCC3C(C)(C(N)=O)CCCC3(C)C2CC1CC#N (stereo not given)
inactive: [1] 93 % of control | [2] 93 % of control | [5] 91 % of control | [3] 94 % of control | [6] 93 % of control

CCOC(=O)C(CN(CC)CC)c1ccccc1 (stereo not given)
inactive: dose: 88.8 mg/kg/injection, schedule: Q01DX001 (ip), vehicle: carboxymethylcellulose (CMC) 97 % of control and 105 % of control | dose: 100.0 mg/kg/injection, schedule: Q01DX001 (ip), vehicle: carboxymethylcellulose (CMC) 118 % of control | dose: 133.0 mg/kg/injection, schedule: Q01DX001 (ip), vehicle: carboxymethylcellulose (CMC) 97 % of control and 98 % of control | dose: 200.0 mg/kg/injection, schedule: Q01DX001 (ip), vehicle: carboxymethylcellulose (CMC) 105 % of control and 109 % of control | dose: 300.0 mg/kg/injection, schedule: Q01DX001 (ip), vehicle: carboxymethylcellulose (CMC) 98 % of control and 106 % of control | dose: 400.0 mg/kg/injection, schedule: Q01DX001 (ip), vehicle: carboxymethylcellulose (CMC) 115 % of control

CCOC(=O)CNc1ccc(F)c(Cl)c1
inactive: [16] 106 % of control and 108 % of control | [17] 98 % of control and 112 % of control | [18] 102 % of control | dose: 600.0 mg/kg/injection, schedule: Q04DX002 (ip), vehicle: Klucel (hydroxypropylcellulose) (HPC) 98 % of control

CNNC(=O)NC
inactive: dose: 50.0 mg/kg/injection, schedule: Q01DX009 (ip), vehicle: saline 109 % of control | [19] 94 % of control

O=C(N=C1C=CC(=NC(=O)OCc2ccccc2)C=C1)OCc1ccccc1
inactive: [7] 98 % of control | [8] 92 % of control | [9] 100 % of control | [10] 88 % of control | [11] 100 % of control | [12] 90 % of control

O=C1CC(=O)N(c2ccccc2)O1
inactive: [4] 92 % of control | [5] 112 % of control | [6] 91 % of control

CCOC(=O)C(Cc1ccccc1Cl)(Cc1ccccc1Cl)c1ccccc1
inactive: [1] 92 % of control | [2] 90 % of control | [3] 90 % of control

CCOC(=O)c1c(C)c2c(n1C)CCCC2O (stereo not given)
inactive: dose: 100.0 mg/kg/injection, schedule: Q04DX003 (ip), vehicle: carboxymethylcellulose (CMC) 101 % of control | dose: 200.0 mg/kg/injection, schedule: Q04DX003 (ip), vehicle: carboxymethylcellulose (CMC) 98 % of control | dose: 400.0 mg/kg/injection, schedule: Q04DX003 (ip), vehicle: carboxymethylcellulose (CMC) 95 % of control

O=C(Cn1ccc(O)cc1=O)N1CCC2(CC1)SSC1(CCN(C(=O)Cn3ccc(O)cc3=O)CC1)S2
inactive: [19] 86 % of control | [13] 102 % of control | dose: 200.0 mg/kg/injection, schedule: Q01DX009 (ip), vehicle: saline 93 % of control | [14] 94 % of control | dose: 400.0 mg/kg/injection, schedule: Q01DX009 (ip), vehicle: saline 94 % of control | [15] 88 % of control

Cc1cnc2c(N)nc(-c3ccccc3)nc2n1
inactive: dose: 100.0 mg/kg/injection, schedule: Q01DX001 (ip), vehicle: Klucel (hydroxypropylcellulose) (HPC) 94 % of control | dose: 200.0 mg/kg/injection, schedule: Q01DX001 (ip), vehicle: Klucel (hydroxypropylcellulose) (HPC) 103 % of control | dose: 400.0 mg/kg/injection, schedule: Q01DX001 (ip), vehicle: Klucel (hydroxypropylcellulose) (HPC) 100 % of control

Cc1ccc([P+](Cc2ccccc2)(c2ccc(C)cc2)c2ccc(C)cc2)cc1
inactive: dose: 75.0 mg/kg/injection, schedule: Q01DX001 (ip), vehicle: saline 97 % of control | dose: 150.0 mg/kg/injection, schedule: Q01DX001 (ip), vehicle: saline 97 % of control
